The test has as its target T1, Leukotriene B4 receptor 2 (Homo sapiens, UniProt Q9NPC1).
T1 sequence (Q9NPC1 whole entry): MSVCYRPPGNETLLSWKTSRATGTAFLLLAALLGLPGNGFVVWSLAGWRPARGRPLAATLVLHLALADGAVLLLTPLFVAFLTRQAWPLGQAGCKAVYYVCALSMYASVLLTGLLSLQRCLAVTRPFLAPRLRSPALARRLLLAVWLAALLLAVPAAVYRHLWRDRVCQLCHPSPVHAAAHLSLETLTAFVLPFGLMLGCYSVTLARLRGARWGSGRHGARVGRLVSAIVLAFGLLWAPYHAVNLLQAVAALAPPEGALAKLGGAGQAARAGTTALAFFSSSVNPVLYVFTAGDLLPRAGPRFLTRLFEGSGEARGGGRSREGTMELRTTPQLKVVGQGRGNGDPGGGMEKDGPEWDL

`O=C(Nc1ccc2c(=O)cc(-c3nnn[nH]3)oc2c1)c1ccc(OCCCCc2ccccc2)cc1` [CAS_103177-37-3] displayed a Ki of 3620 nM. That is a single-digit micromolar value.

`CC(C)(O)c1ccccc1CCC(S)c1cccc(C=Cc2ccc3ccc(Cl)cc3n2)c1` (stereo unspecified) [NSC_5311297] showed a Ki of more than 10000 nM.

Regarding `COc1cc(C(=O)NS(=O)(=O)c2ccccc2C)ccc1Cc1cn(C)c2ccc(NC(=O)OC3CCCC3)cc12` [cyclopentyl 3-(2-methoxy-4-((o-tolylsulfonyl)carbamoyl)benzyl)-1-methylindole-5-carbamate], the Ki is 7400 nM.

On to `CCCCC/C=C\C\C=C/C=C/C=C/[C@@H](SC[C@H](N)C(=O)NCC(=O)O)[C@@H](O)CCCC(=O)O` [5S-hydroxy-6R-(S-cysteinylglycinyl)-7E,9E,11E,14Z-eicosatetraenoic acid], for which affinity was put at a Ki of 3.48 nM.

`CCCCC/C=C\C\C=C/C=C/C=C/[C@@H](SC[C@H](N)C(=O)O)[C@@H](O)CCCC(=O)O` [(5S-(5R*,6S*(S*),7E,9E,11Z,14Z))-6-((2-Amino-2-carboxyethyl)thio)-5-hydroxy-7,9,11,14-eicosatetraenoic acid]: the affinity corresponds to a Ki of 693 nM.

As to `CCCCCC=CCC=CC=CC=CC(SCC(NC(=O)CCC(N)C(=O)O)C(=O)NCC(=O)O)C(O)CCCC(=O)O` (stereo unspecified) [CAS_5283121], the affinity, expressed as Ki, was 3.35 nM. Compared with the last molecule, the Ki is about 210-fold lower.

For the origin of these results see BindingDB's records for doi:10.1074/jbc.M003490200 (University of Virginia, 2000).
